In patent US20210069176A1, “Treating Autoimmune Disorders with Chloroquine and/or Hydroxychloroquine” (Attillaps Holdings, priority 2018, published 2021):

Assays:
Demodex mites = assay: in vitro Demodex survival time assay
Method: FIG. 4 summarizes the activity of 10% chloroquine in water relative to a water control on activity against Demodex mites in an in vitro assay, with an LT50 of 31.6 hours for chloroquine compared to 44.8 hours for the water control, illustrating the inactivation effect of chloroquine on Demodex.
Example 4: In vitro efficacy and mite lifetimes: Relative efficacy of various formulations are evaluated with a demodex survival time experiments. FIG. 3 tabulates demodex survival time, expressed in terms of LT50 (time at which 50% of demodex mites are killed) and/or average minutes to death for various active agents.

[1] = dichlorvos 1%, one patient; cited from earlier work

SMILES | LT50 (time at which 50% of demodex mites are killed) (Demodex mites; 10% chloroquine in water, water control 44.8 hours, FIG. 4) [h] | activity against Demodex mites (Demodex mites; in vitro assay, FIG. 3) | remission of Papulopostular Rosacea (PPR) [1]
CCN(CC)CCCC(C)Nc1ccnc2cc(Cl)ccc12 (stereo not drawn) [chloroquine] | 31.6 | has activity against Demodex mites | 
COP(=O)(OC)OC=C(Cl)Cl [dichlorvos] |  |  | complete and continued remission
